Reference: the supplement of paper PMC10307832

compound: CC1=CC(=C(N1C2=CC=C(C=C2)Cl)C)C(=O)CN3CCCCC3 [IU1-47] + CC(C)C[C@H](NC(=O)[C@H](Cc1ccccc1)NC(=O)c1cnccn1)B(O)O [Bortezomib] (partner 0.002 µM); test: relative viability (nuclei count vs DMSO), 5 days (fraction); higher = more cells survive; conditions: first compound 0.08 µM
Outline: (§1)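 The day after seeding in 1536-well plates, lung cancer cell lines were treated by pin tool with a single drug, or with a fixed anchor-drug dose together with five library-drug doses (not always all listed) in √10 steps. After 5 days, a combined fix-and-stain solution (final 0.05% Triton X-100, 1% formaldehyde, 1 ug/ml Hoechst) was added. Nuclei counted on 4× images gave relative viability as treated counts over vehicle counts, reported as the median of duplicate plates.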

Row | Cell Line | relative viability
1 | NCI-H1975 | 0.375
2 | RERF-LC-KJ | 1.16
3 | NCI-H650 | 0.908
4 | PC-3 [JPC-3] | 0.909

same assay, conditions: first compound 0.253 µM

Row | Cell Line | relative viability
5 | NCI-H1975 | 0.408
6 | RERF-LC-KJ | 1.18
7 | NCI-H650 | 0.811
8 | PC-3 [JPC-3] | 0.805

same assay, conditions: first compound 0.8 µM

Row | Cell Line | relative viability
9 | NCI-H1975 | 0.455
10 | RERF-LC-KJ | 1.12
11 | NCI-H650 | 0.952
12 | PC-3 [JPC-3] | 0.841

same assay, conditions: first compound 2.53 µM

Row | Cell Line | relative viability
13 | NCI-H1975 | 0.308
14 | RERF-LC-KJ | 1.14
15 | NCI-H650 | 0.742

same assay, conditions: first compound 8 µM

Row | Cell Line | relative viability
16 | NCI-H1975 | 0.317
17 | RERF-LC-KJ | 1.06
18 | NCI-H650 | 0.681
19 | PC-3 [JPC-3] | 0.885

compound: CC1=CC(=C(N1C2=CC=C(C=C2)Cl)C)C(=O)CN3CCCCC3 [IU1-47] + Nc1ncn([C@H]2C[C@H](O)[C@@H](CO)O2)c(=O)n1 [Decitabine] (partner 2 µM); test: as above; conditions: first compound 0.08 µM
Outline: as §1

Row | Cell Line | relative viability
20 | NCI-H1975 | 0.397
21 | RERF-LC-KJ | 0.784
22 | NCI-H650 | 0.369
23 | PC-3 [JPC-3] | 0.905

same assay, conditions: first compound 0.253 µM

Row | Cell Line | relative viability
24 | NCI-H1975 | 0.381
25 | RERF-LC-KJ | 0.912
26 | NCI-H650 | 0.333
27 | PC-3 [JPC-3] | 0.935

same assay, conditions: first compound 0.8 µM

Row | Cell Line | relative viability
28 | NCI-H1975 | 0.585
29 | RERF-LC-KJ | 0.673
30 | NCI-H650 | 0.27
31 | PC-3 [JPC-3] | 0.886

same assay, conditions: first compound 2.53 µM

Row | Cell Line | relative viability
32 | NCI-H1975 | 0.361
33 | RERF-LC-KJ | 0.639
34 | NCI-H650 | 0.334
35 | PC-3 [JPC-3] | 0.834

same assay, conditions: first compound 8 µM

Row | Cell Line | relative viability
36 | NCI-H1975 | 0.378
37 | RERF-LC-KJ | 0.578
38 | NCI-H650 | 0.291
39 | PC-3 [JPC-3] | 0.888

compound: Cc1nc(C(=O)NCC(=O)O)c(O)c2ccc(Oc3ccccc3)cc12 [FG-4592] + C[C@@H](Oc1cc(-c2cnn(C3CCNCC3)c2)cnc1N)c1c(Cl)ccc(F)c1Cl [Crizotinib] (partner 1 µM); test: as above; conditions: first compound 0.08 µM
Outline: as §1

Row | Cell Line | relative viability
40 | NCI-H1975 | 0.921
41 | RERF-LC-KJ | 0.798
42 | NCI-H650 | 0.598
43 | PC-3 [JPC-3] | 1

same assay, conditions: first compound 0.253 µM

Row | Cell Line | relative viability
44 | NCI-H1975 | 0.892
45 | RERF-LC-KJ | 0.8
46 | NCI-H650 | 0.648
47 | PC-3 [JPC-3] | 0.905

same assay, conditions: first compound 0.8 µM

Row | Cell Line | relative viability
48 | NCI-H1975 | 1.11
49 | RERF-LC-KJ | 0.849
50 | NCI-H650 | 0.756
51 | PC-3 [JPC-3] | 1.12

same assay, conditions: first compound 2.53 µM

Row | Cell Line | relative viability
52 | NCI-H1975 | 0.991
53 | RERF-LC-KJ | 0.837
54 | NCI-H650 | 0.654
55 | PC-3 [JPC-3] | 0.98

same assay, conditions: first compound 8 µM

Row | Cell Line | relative viability
56 | NCI-H1975 | 0.897
57 | RERF-LC-KJ | 0.771
58 | NCI-H650 | 0.61
59 | PC-3 [JPC-3] | 0.988

compound: CC1=CC(=C(N1C2=CC=C(C=C2)Cl)C)C(=O)CN3CCCCC3 [IU1-47] + CC(=O)Nc1cccc(-n2c(=O)n(C3CC3)c(=O)c3c(Nc4ccc(I)cc4F)n(C)c(=O)c(C)c32)c1 [Trametinib] (partner 0.02 µM); test: as above; conditions: first compound 0.08 µM
Outline: as §1

Row | Cell Line | relative viability
60 | NCI-H1975 | 0.337
61 | RERF-LC-KJ | 0.845
62 | NCI-H650 | 0.96
63 | PC-3 [JPC-3] | 0.771

same assay, conditions: first compound 0.253 µM

Row | Cell Line | relative viability
64 | NCI-H1975 | 0.324
65 | RERF-LC-KJ | 0.883
66 | NCI-H650 | 0.958
67 | PC-3 [JPC-3] | 0.686

same assay, conditions: first compound 0.8 µM

Row | Cell Line | relative viability
68 | NCI-H1975 | 0.464
69 | RERF-LC-KJ | 0.998
70 | NCI-H650 | 0.863
71 | PC-3 [JPC-3] | 0.73

same assay, conditions: first compound 2.53 µM

Row | Cell Line | relative viability
72 | NCI-H1975 | 0.328
73 | RERF-LC-KJ | 1.1
74 | NCI-H650 | 0.91
75 | PC-3 [JPC-3] | 0.715

same assay, conditions: first compound 8 µM

Row | Cell Line | relative viability
76 | NCI-H1975 | 0.322
77 | RERF-LC-KJ | 0.799
78 | NCI-H650 | 1.06
79 | PC-3 [JPC-3] | 0.791
